This is an account of results in patent US20030157084A1, “Methods for preparing purified prostaglandin E synthase” (priority 2001, published 2003).

One may read the Vmax as the rate approached at saturating substrate. For orientation: Km means the concentration of substrate that gives half-maximal velocity. As usually defined, the kcat is the maximal rate divided by the concentration of active sites.

For data set [1], the target named is T1, purified His6-hPGES (Homo sapiens, UniProt O14684).
T1 sequence (O14684 1-152): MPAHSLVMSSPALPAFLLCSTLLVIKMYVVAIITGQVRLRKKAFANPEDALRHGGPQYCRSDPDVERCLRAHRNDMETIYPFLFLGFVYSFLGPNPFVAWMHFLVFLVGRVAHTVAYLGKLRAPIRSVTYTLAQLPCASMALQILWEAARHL
In words: PGES activity assay: glutathione dependent conversion of PGH2 to PGE2 by purified His6-hPGES. Also on record: made in house; host or cells: E. coli BL21(DE3) with pLysSL. The settings on record: sulfhydryl compound in place of GSH. In kind it is biochemical.

The target in data set [2] is T1, purified His6-hPGES. The settings on record: 37 ° C., 0.05 mg/ml enzyme, 1 mM GSH, 0.5 mM cumene hydroperoxide.
Data set [3] addresses T1, purified His6-hPGES. In words: PGES activity assay: glutathione dependent conversion of PGH2 to PGE2 by purified His6-hPGES. The format is biochemical. Also on record: made in house; host or cells: E. coli BL21(DE3) with pLysSL. The note with it: for Specific activity: at Vmax. The procedure: PGE synthase activity of the purified polypeptide, i.e., the ability to catalyze the conversion of a substrate of PGES into a 9-keto, 11-alpha-hydroxy form, e.g., PGH2 into PGE2 can be determined as follows. […] The polypeptide suspected of having PGES activity is incubated in a buffer, e.g., a sodium phosphate buffer in the presence of about 1 to 5 mM, preferably, 2.5 mM glutathione (GSH). The reaction is started by the addition of PGH2 at about 5 to 20 μM, and preferably 10 uM, and the reaction mixture is then incubated either at 37° C., at room temperature, or preferably, at 0° C., for about one to ten minutes, and preferably, for about one minute. The reaction can be terminated by the addition of a solution reducing the pH to about 3 or 3.2. This can be achieved by the addition of acetonitrile/HCl (as described in Jakobsson et al. (1999) PNAS 96:7220) or by the addition of FeCl2, citric acid, and/or 11-beta PGE2, as described in the Examples. The formation of PGF2 alpha, PGE2 and PGD2 can be determined by reverse-phase high pressure liquid chromatograph (HPLC) and UV detection at 195 nm. For subjecting the proteins to HPLC, the reaction mixtures can be subjected to solid phase extraction, e.g., using C18 Chomabond columns; the samples eluted with acetone, dried and dissolved in acetonitrile. The samples are then ready for HPLC. More details of these methods are provided in the Examples, as well as in Jakobssen et al., supra, and in published PCT application No. WO 00/28022 by Jakobsson et al.
(§1) PGES activity was assayed in 50 mM sodium phosphate buffer, pH 7.4, in the presence of 2.5 mM reduced glutathione (GSH; obtained from Sigma Chemical Co. (St. Louis, Mo.) and either zero; 0.2; 0.4 or 0.6 mg/ml of purified hPGES. The reaction was started by the addition of 10 μM PGH2, and the samples were incubated for 1 minute at 0° C. until terminated by 20 mM FeCl2, 40 mM citric acid and 2.1 μM 11-β. PGE2, lowering the pH to 3. PGH2 was prepared by brief incubation of arachidonic acid with suspensions of the microsomal fraction of homogenate of the sheep vesicular gland essentially as described in Hamberg et al. (1974) PNAS 71:345 or Hecker et al. (1987) Biochem. Pharmacol. 36:851. L-tryptophan (5 mM) was used as electron donor. Purification was accomplished by straight-phase HPLC using a solvent system of 2.5% 2-propanol-hexane containing 0.002% acetic acid. Solid phase extraction using C18 Chromabond columns was performed immediately. The samples were eluted with acetone, dried and dissolved in acetonitrile (⅓ by vol. in H2O) and the formation of PGE2 was analyzed by reverse-phase HPLC on a C18 (3.9×150 mm, 4 μM particle size) column and UV detection at 195 nm.
(§2) The remaining protein was divided in two parts, one was stored at 4° C. for 5 days, and one was frozen and stored at −20° C. for the same time. The PGES activity in the three samples was compared with that in a membrane fraction without solubilization. PGES activity was determined, as described above, for various amounts of protein. The samples were incubated for 1 min on ice or at 37° C. before stopping the reaction. The activity of the purified proteins was compared with the activity in BL21(DE3) membrane fraction without solubilization.
(§3) All points were made in triplicate. The Michaelis-Menten constants KM and Vmax (maximum velocity) were derived by hyperbolic regression with the computer program GraphPad Prism software 3.0 or 3.02 (GraphPad Software, Inc., San Diego, Calif.).

For data set [4], the target named is T1, purified His6-hPGES. In words: Glutathione transferase (GST) activity of purified His6-hPGES with CDNB. The note with it: pre-incubation with 5 mM N-ethylmaleimid in the absence of GSH for 1 minute. Details: made in house; host or cells: E. coli BL21(DE3) with pLysSL. The format is biochemical. As to the method: Glutathione transferase (GST) activity (glutathione conjugation) was assayed with the classical model substrate for GSTs, p-chloro-2,4-dinitrobenzene (CDNB). […] Formation of product was detected at 340 nm (molar absorption coefficient for the product, GS-DNB, is 9.6 mM^−1 cm^−1).

In data set [5] the target is T1, purified His6-hPGES. In words: Reduction of 15-hydroperoxy-PGE2 (peroxidase activity) by purified his6-hPGES. Details: made in house; host or cells: E. coli BL21(DE3) with pLysSL. The note with it: 37 ° C., 0.1 mg/ml enzyme, 0.16 mM 15 hydroperoxy-PGE2. In kind it is biochemical. As to the method:
This is presented in a typical chromatogram (FIG. 12B) as compared to the buffer control (FIG. 12C) after 30 seconds of incubation.

The target in data set [6] is T1, purified His6-hPGES. In words: Isomerization of PGG2 into 15-hydroperoxy-PGE2 by purified His6-hPGES. In kind it is biochemical. Also on record: made in house; host or cells: E. coli BL21(DE3) with pLysSL. The procedure: PGG2 was prepared similarly to PGE2 (described above), omitting the L-tryptophan. The reaction was terminated by lowering the pH to 3 by adding 6 μl HCl (1M). Then, 45 μl acetonitrile was added and centrifugation was performed at 14,000 g, for 1 minute to remove the protein. […] In order to determine the formation of PGE2 and 15-Hydroperoxy PGE2, an aliquot (100 μl) was analyzed by RP-HPLC, combined with UV detection at 195 nm. The products were quantified based on the peak areas from known amounts of injected prostaglandins.

Data set [7] in a line: Specific activity and kinetic properties of purified His6-hPGES for conversion of PGH2 to PGE2. The format is biochemical. The note with it: for Specific activity of the purified His6-hPGES: glutathione dependent conversion of PGH2 to PGE2. As to the method: as §1, §2, §3
The format of data set [8] is physicochemical. The procedure: Membrane fractions were solubilized in 50 mM sodium phosphate buffer, pH 8.0, 150 mM NaCl, 4% Triton X-100, 10% glycerol and 1 mM GSH and stored at 4° C. Samples were assayed for PGES activity as described above after 0, 3, 6, 24 and 240 h (10 days) at 4° C.
as §2

Setting [9] is: 37° C., steady state, KM values apparent, read-out: KM.

Like-named read-outs stand apart in the source and are kept apart here.

Turning to `CC(=O)N[C@@H](CS)C(=O)O` [N-acetylcysteine], the “PGES activity when GSH was substituted by other sulfhydryl compounds” value (shortened to “PGES activity when GSH was substituted”) in data set [1] is given as “no PGES-activity could be detected”.

As to `O[C@H](CS)[C@H](O)CS` (racemic) [dithiothreitol], in data set [1], the “PGES activity when GSH was substituted” value is on record as “no PGES-activity could be detected”.

Regarding cumene hydroperoxide, the “Specific activity (GSH-dependent peroxidase)” value in data set [2] is 0.17 ± 0.02 µmol/min/mg; in data set [2] (listed as cumene hydroperoxide), 0.17 µmol/min/mg.

Take `CCCCC[C@H](O)/C=C/[C@@H]1[C@@H](C/C=C\CCCC(=O)O)[C@@H]2C[C@H]1OO2` [PGH2, Prostaglandin endoperoxide H2]: the Vmax in data set [3] (0° C., 1 μg/ml purified PGES, 2.5 mM GSH, varying PGH2) came to 0.25 ± 0.013 µM/s; in data set [3] (37° C., 1 μg/ml purified PGES, 2.5 mM GSH, varying PGH2) it was 1.39 ± 0.16 µM/s. The Michaelis-Menten constant (Km) in data set [3] (0° C., 1 μg/ml purified PGES, 2.5 mM GSH, varying PGH2, read-out: Km for PGH2) was determined as 50 ± 8.9 µM; in data set [3] (37° C., 1 μg/ml purified PGES, 2.5 mM GSH, varying PGH2, read-out: Km for PGH2), 163 ± 42 µM; in data set [3] (setting [9]), 160 µM. The catalytic constant (kcat) in data set [3] (37° C., steady state) is 50 ± 6 s⁻¹. Also, the Specific activity in data set [3] (substrate PGH2, 0 ° C.) was found to be 15 µmol/min/mg; in data set [3] (substrate PGH2, 37 ° C.), 170 ± 20 µmol/min/mg.

For `CCN1C(=O)C=CC1=O` [N-ethylmaleimide], the “Reduction of PGES activity” value in data set [3] (pre-incubation with 5 mM N-ethylmaleimide in the absence of GSH for 1 minute) is given as about 100%. Further, the “Reduction of GST enzyme activity” value in data set [4] came out at 50%.

Turning to `CCCCC[C@@H](/C=C/[C@H]1[C@H](O)CC(=O)[C@@H]1C/C=C\CCCC(=O)O)OO` [15-hydroperoxy-PGE2, 15-Hydroperoxy PGE2], the entries for the “Specific activity (reduction of 15-hydroperoxy-PGE2)” value in data set [5] and in data set [5] (listed as 15-HP PGE2) were 0.043 ± 0.019 µmol/min/mg and “no peroxidase activity towards this compound was detected”, respectively.

Consider `CCCCC[C@@H](/C=C/[C@@H]1[C@@H](C/C=C\CCCC(=O)O)[C@@H]2C[C@H]1OO2)OO` [PGG2], for which the catalytic constant (kcat) in data set [6] (37° C., steady state, PGG2 as substrate) turned out to be 75 ± 4 s⁻¹. Moreover, in data set [6] (37° C., steady state, PGG2 as substrate, apparent), the Km turned out to be 160 ± 30 µM. The Specific activity in data set [6] (37 ° C., substrate PGG2, highest measured specific activity) turned out to be 250 ± 15 µmol/min/mg.

Consider `N[C@@H](CCC(=O)N[C@@H](CS)C(=O)NCC(=O)O)C(=O)O` [GSH, reduced glutathione], for which the kcat in data set [3] (37° C., steady state) was 21 ± 1 s⁻¹. Besides, the Km in data set [3] (setting [9]) is 710 ± 200 µM.

In the case of `OCCS` [2-mercaptoethanol], the “PGES activity when GSH was substituted” value in data set [1] is “no PGES-activity could be detected”.

B1: His6-hPGES: full length human PGES fused at its N-terminus to six histidine residues (SEQ ID NO: 4), expressed in E. coli (protein)
chain: MHHHHHHMPAHSLVMSSPALPAFLLCSTLLVIKMYVVAIITGQVRLRKKAFANPEDALRHGGPQYCRSDPDVERCLRAHRNDMETIYPFLFLGFVYSFLGPNPFVAWMHFLVFLVGRVAHTVAYLGKLRAPIRSVTYTLAQLPCASMALQILWEAARHL
Take B1: in data set [7] (0° C.), the “Specific activity of the purified His6-hPGES” value came to 15 µmol/min/mg. Besides, in data set [7] (37° C.), the “Specific activity of the purified His6-hPGES” value came to 167 µmol/min/mg. In data set [7] (Human, recombinant), the Km is 163 µM, the “Spec. Act.” value is 167 µmol/min/mg and the kcat came out at 50 s⁻¹. Further, in data set [8] (816 h), the Original activity remaining result was “about 50%”. For the same molecule, in data set [8] (in the absence of glycerol and GSH), the “PGES activity in BL21 (DE3) membranes” value is “rapidly declines within a period of 24 h”. In addition, in data set [8] (purified enzyme heated at 100° C. for 10 minutes), the “PGES activity after heating” value is recorded as “no PGES-activity could be detected”. For the same molecule, the “Activity compared to the freshly prepared enzyme” value in data set [8] (purified enzyme, five days of storage at 4° C.) is listed as “unchanged”. Also, the “Loss of activity on storage” value in data set [8] (purified enzyme, up to at least two months at −20° C.) is reported as “does not seem to result in any loss of activity”.
